Measurements: article PMC10885651 (BMC Chemistry, 2024)

Tests used:
[1] = system: mushroom tyrosinase (EC 1.14.18.1); assay: Mushroom tyrosinase inhibition assay, L-Dopa as substrate (diphenolase activity, dopachrome at 490 nm); type: biochemical; conditions: for % Inhibition at 80 µM: 80 µM compound; for % Inhibition at 80 µM / % Inhibition at 30 µM: mean of three independent experiments; for % Inhibition at 30 µM: 30 µM compound
Procedure: We conducted the assay of mushroom tyrosinase (EC 1.14.18.1) utilizing L-Dopa as the substrate, as previously described, with minor adaptations. We employed a spectrophotometric technique to assess the enzyme's diphenolase activity, observing dopachrome formation at 490 nm. […] In a 96-well microplate, 10 µl of the test samples were combined with 140 µl of 50 mM phosphate buffer (pH = 6.8). Subsequently, 20 µl of tyrosinase (273 U mL^−1) was introduced. Following a pre-incubation period of 20 min at 28 °C, 20 µl of L-Dopa solution (resulting in a final concentration of 0.7 mM) was added to the mixture. Following a 10-min incubation, the absorbance of the samples was measured. The inhibitory activity of the tested compounds was stated as IC50. The ratio percentage of inhibition was calculated according to the equation below: Inhibition%=100Abscontrol-Abscompound/Abscontrol

tyrosinase = conditions: Fig. 1; cited from earlier work
mushroom tyrosinase = assay: Kinetic study of tyrosinase inhibition (Lineweaver-Burk plots); type: biochemical
Description: Mechanism and type of inhibition were elucidated through kinetic investigations. […] Lineweaver–Burk plots, depicting 1/V against 1/[S], were constructed to illustrate the inhibition of tyrosinase by 6b across varying concentrations of both 6b and L-Dopa, the substrate. In this context, Km represents the Michaelis–Menten constant, while Vmax signifies the maximum reaction velocity.
Based on these findings, it can be inferred that the inhibitory effect of compound 6b is competitive.
The inhibitor concentrations employed ranged from 2 to 20 μM, while the substrate (L-Dopa) concentrations in the rane of 0.1 mM to 1.5 mM through all kinetic experiments. The pre-incubation and measurement durations followed the protocol outlined in the mushroom tyrosinase inhibition assay. The maximum initial velocity was ascertained from the initial linear segment of absorbance within a 10-min window following the introduction of L-Dopa, with measurements taken at 1-min intervals. Utilizing the Lineweaver–Burk plot technique, we calculated the Michaelis constant (Km) and the tyrosinase activity's maximal velocity (Vmax). This plot involved various L-Dopa concentrations as the substrate. For assessing the enzyme's inhibition type, we employed Lineweaver–Burk plots featuring the reciprocal of velocities (1/V) plotted against the reciprocal of substrate concentrations (1/[S] mM^−1).

% Inhibition at 80 µM [1] | melting point | Molecule | also measured
20.45 ± 4.54% | – | 2-Amino-4-(3-((para-tolyl)oxy)phenyl)-6-(hydroxymethyl)-8-oxo-4,8-dihydropyrano[3,2-b]pyran-3-carbonitrile [6j] | tyrosinase inhibitory activity (in words) [1]: without any activity
– | – | Nn1c(SCc2cc(=O)c(O)co2)nnc1-c1ccc(Cl)cc1 [1a] | IC50 (tyrosinase): 4.5 µM
– | – | O=c1cc(Cc2cn(Cc3cccc4ccccc34)nn2)occ1O [1b] | IC50 (tyrosinase): 0.06 µM
– | – | O=c1cc(/C=C/c2cc(=O)c(O)co2)occ1O [1c] | IC50 (tyrosinase): 30.6 µM
– | – | O=c1cc(CSc2nnc(-c3ccccc3)n2NCc2ccc(O)c(O)c2)occ1O [1d] | IC50 (tyrosinase): 1.35 µM
– | – | CCOC(=O)C1=C(N)Oc2c(ccc3ccccc23)C1c1cccc(Cl)c1 (centres unmarked) [1e] | IC50 (tyrosinase): 34.1 µM
– | – | CC1(C)CC(=O)C2=C(C1)Oc1ncn3ncnc3c1C2c1ccccc1 (centres unmarked) [1f] | Inhibition percentage (tyrosinase): 78%
47.90 ± 3.90% | 221 to 224 °C | N#CC1=C(N)Oc2c(oc(CO)cc2=O)C1c1ccc(OCc2ccccc2)cc1 (centres unmarked) [6a, 2-Amino-4-(4-(benzyloxy)phenyl)-6-(hydroxymethyl)-8-oxo-4,8-dihydropyrano[3,2-b]pyran-3-carbonitrile] | tyrosinase inhibitory activity (in words) [1]: inactive
89.27 ± 2.59% | 227 to 230 °C | N#CC1=C(N)Oc2c(oc(CO)cc2=O)C1c1ccc(OCc2ccc(F)cc2)cc1 (centres unmarked) [6b, 2-Amino-4-(4-((4-fluorobenzyl)oxy)phenyl)-6-(hydroxymethyl)-8-oxo-4,8-dihydropyrano[3,2-b]pyran-3-carbonitrile] | type of inhibition (mushroom tyrosinase; Lineweaver-Burk plot, Vmax constant, Km rising): competitive; Ki (mushroom tyrosinase; secondary plot of Km vs concentration of inhibitor, L-Dopa 0.1-1.5 mM, read-out: inhibition constant Ki): 7.57 µM; IC50 [1]: 7.69 ± 1.99 µM; % Inhibition at 30 µM [1]: 79.81 ± 6.18%
50.01 ± 4.34% | 236 to 239 °C | N#CC1=C(N)Oc2c(oc(CO)cc2=O)C1c1ccc(OCc2ccc(Cl)cc2)cc1 (centres unmarked) [6c, 2-Amino-4-(4-((4-chlorobenzyl)oxy)phenyl)-6-(hydroxymethyl)-8-oxo-4,8-dihydropyrano[3,2-b]pyran-3-carbonitrile] | IC50 [1]: 79.2 ± 3.3 µM; % Inhibition at 30 µM [1]: 44.09 ± 2.94%
66.36 ± 3.64% | 214 to 216 °C | N#CC1=C(N)Oc2c(oc(CO)cc2=O)C1c1ccc(OCc2ccc(Br)cc2)cc1 (centres unmarked) [6d, 2-Amino-4-(4-((4-bromobenzyl)oxy)phenyl)-6-(hydroxymethyl)-8-oxo-4,8 dihydropyrano[3,2-b]pyran-3-carbonitrile] | IC50 [1]: 34 ± 2.53 µM; % Inhibition at 30 µM [1]: 48.86 ± 3.53%
48.63 ± 6.37% | 215 to 218 °C | Cc1ccc(COc2ccc(C3C(C#N)=C(N)Oc4c3oc(CO)cc4=O)cc2)cc1 (centres unmarked) [6e, 2-Amino-6-(hydroxymethyl)-4-(4-((4-methylbenzyl)oxy)phenyl)-8-oxo-4,8-dihydropyrano[3,2-b]pyran-3-carbonitrile] | –
42.27 ± 2.72% | 235 to 238 °C | N#CC1=C(N)Oc2c(oc(CO)cc2=O)C1c1cccc(OCc2ccccc2)c1 (centres unmarked) [6f, 2-Amino-4-(3-(benzyloxy)phenyl)-6-(hydroxymethyl)-8-oxo-4,8-dihydropyrano[3,2-b]pyran-3-carbonitrile] | tyrosinase inhibitory activity (in words) [1]: no inhibitory activity
88.63 ± 6.36% | 239 to 242 °C | N#CC1=C(N)Oc2c(oc(CO)cc2=O)C1c1cccc(OCc2ccc(F)cc2)c1 (centres unmarked) [6g, 2-Amino-4-(3-((4-fluorobenzyl)oxy)phenyl)-6-(hydroxymethyl)-8-oxo-4,8-dihydropyrano[3,2-b]pyran-3-carbonitrile] | IC50 [1]: 9.72 ± 2.47 µM; % Inhibition at 30 µM [1]: 77.95 ± 4.54%
67.95 ± 4.54% | 232 to 236 °C | N#CC1=C(N)Oc2c(oc(CO)cc2=O)C1c1cccc(OCc2ccc(Cl)cc2)c1 (centres unmarked) [6h, 2-Amino-4-(3-((4-chlorobenzyl)oxy)phenyl)-6-(hydroxymethyl)-8-oxo-4,8-dihydropyrano[3,2-b]pyran-3-carbonitrile] | IC50 [1]: 10.7 ± 4.96 µM; % Inhibition at 30 µM [1]: 65.90 ± 5.09%
67.72 ± 7.27% | 236 to 238 °C | N#CC1=C(N)Oc2c(oc(CO)cc2=O)C1c1cccc(OCc2ccc(Br)cc2)c1 (centres unmarked) [6i, 2-Amino-4-(3-((4-bromobenzyl)oxy)phenyl)-6-(hydroxymethyl)-8-oxo-4,8-dihydropyrano[3,2-b]pyran-3-carbonitrile] | IC50 [1]: 15.3 ± 3.17 µM; % Inhibition at 30 µM [1]: 59.54 ± 5.44%
10.25 ± 3.48% | – | COc1cc(C2C(C#N)=C(N)Oc3c2oc(CO)cc3=O)ccc1OCc1ccccc1 (centres unmarked) [6k, 2-Amino-4-(4-(benzyloxy)-3-methoxyphenyl)-6-(hydroxymethyl)-8-oxo-4,8 dihydropyrano[3,2-b]pyran-3-carbonitrile] | –
49.09 ± 4.91% | – | COc1cc(C2C(C#N)=C(N)Oc3c2oc(CO)cc3=O)ccc1OCc1ccc(F)cc1 (centres unmarked) [6l, 2-Amino-4-(4-((4-fluorobenzyl)oxy)-3-methoxyphenyl)-6-(hydroxymethyl)-8-oxo-4,8-dihydropyrano[3,2-b]pyran-3-carbonitrile] | –
49.31 ± 6.12% | – | COc1cc(C2C(C#N)=C(N)Oc3c2oc(CO)cc3=O)ccc1OCc1ccc(Cl)cc1 (centres unmarked) [6m, 2-Amino-4-(4-((4-cholorobenzyl)oxy)-3-methoxyphenyl)-6-(hydroxymethyl)-8-oxo-4,8-dihydropyrano[3,2-b]pyran-3-carbonitrile] | –
21.36 ± 3.63% | – | COc1cc(C2C(C#N)=C(N)Oc3c2oc(CO)cc3=O)ccc1OCc1ccc(Br)cc1 (centres unmarked) [6n, 2-Amino-4-(4-((4-boromobenzyl)oxy)-3-methoxyphenyl)-6-(hydroxymethyl)-8-oxo-4,8-dihydropyrano[3,2-b]pyran-3-carbonitrile] | –
44.31 ± 4.18% | – | COc1cc(C2C(C#N)=C(N)Oc3c2oc(CO)cc3=O)ccc1OCc1ccc(C)cc1 (centres unmarked) [6o, 2-Amino-6-(hydroxymethyl)-4-(3-methoxy-4-((4-methylbenzyl)oxy)phenyl)-8-oxo-4,8 dihydropyrano[3,2-b]pyran-3-carbonitrile] | –
